In data set [1] the test system is hydantoinase (obtained from Sigma). In words: Hydantoinase catalysed hydrolysis of racemic 6-PDHU and reverse cyclisation, chiral reverse-phase HPLC. The data set is classed as biochemical, Vigna angularis. Particulars: for cyclisation of N-carbamoyl-β-phenylalanine (reverse reaction): with hydantoinase. The method, then:
Unless otherwise stated all experiments were carried out on a 5 mM scale of 6-PDHU (4.75 mg) in 5 mL tris buffer (0.1 M pH 7.5) with 1U of commercially available hydantoinase from Vigna angularis (35 mg, obtained from Sigma, St. Louis, USA) in 15 mL Falcon tubes, incubated in a thermomixer (Falcon) at 750 rpm and a temperature of 50° C.
For chiral rpHPLC the following column, buffer and running conditions were used: • Astec Chirobiotic™ T 25 cm×4.6 mm, 5 μm (Sigma-Aldrich, St. Louis, USA) Ammonium Acetate buffer (pH 5.5):Methanol, 70:30, 25° C., 0.5 mL/min
Initially the hydantoinase (obtained form Sigma, St. Louis, USA) catalysed hydrolysis of (±)-6-PDHU (racemic 6-phenyldihydrouracil) (4a in FIG. 2: R=Ph) was studied as a model system. Reactions were carried out at a substrate concentration of 5 mM in Tris buffer [pH 7.5] and monitored by reverse-phase chiral HPLC as described in Example 7, which allowed simultaneous determination of both the extent of conversion in the reaction and also the enantiomeric excess of unreacted dihydrouracil 4a and the N-carbamoyl derivative 5 (FIG. 4, cf. also Scheme 2). […] All reactions gave an equilibrium concentration of 6-PDHU:(S)-NCBPA=51:49. The enantiomeric excess of (S)-NCBPA exceeded 96% during the whole observation period.

Data set [2] deals with hydantoinase obtained from Sigma. Description: Specific activity of commercially available hydantoinase (Sigma) towards substrates, HPLC. The conditions noted are these: Enzyme from Sigma; 5 mM substrate, 50 mM Tris HCl pH 7.5, 30 min, 40° C. The data set is classed as biochemical, Vigna angularis. The method, then:
(§1) To determine and compare the specific activity of the Sigma enzyme and the purified hydantoinase (BP) 5 mM of hydantoin, 5-phenylhydantoin or 6-phenyldihydrouracil, respectively, in 50 mM Tris HCl pH 7.5 were incubated with different amounts of enzyme for 30 min at 40° C. The reaction was stopped by adding conc. HCl and then measured by HPLC.

Data set [3] concerns D-hydantoinase from Sigma. In words: pH/buffer dependency of hydantoinase conversion of 6-PDHU. Particulars: 22 hours. The data set is classed as biochemical, Vigna angularis. As to the method: 6-PDHU was incubated in phosphate buffer (0.1 M, potassium dihydrogen phosphate and dipotassium hydrogen phosphate, volumes adjusted to the appropriate pH) or Tris buffer at various pH values for (up to 8h, using 7 g/L D-hydantoinase from Sigma). […] In an additional experiment conversion rates were determined for phosphate or Tris buffers at various pH values over time. 5 mM 6-PHDU was incubated in phosphate buffer (pH 6.0, 7.0, 7.5, 8.0) and Tris buffer (pH 7.5) buffers for 22 hours. The results are shown in FIG. 9 (wherein diamonds, squares, triangles and crosses represent phosphate buffer at pH 6, pH 7, pH 7.5 or pH 8, respectively, and dots represents Tris buffer at pH 7.5) and Table 3 (ee=enantiomeric excess [%]).

In data set [4] the test system is D-hydantoinase (Sigma). Description: Substrate specificity of Vigna angularis hydantoinase. The conditions noted are these: Tris buffer pH 7.5, 0.1 M; D-hydantoinase 7 g/L; substrate 5 mM. The format is biochemical. The method, then: Various substrates were synthesized as described in Example 4 and subjected to hydantoinase catalyzed conversion [Tris buffer (pH 7.5, 0.1 M, 1.0 mL), D-hydantoinase, (Sigma, 7 g/L), substrate (5 mM solutions predissolved in buffer unless aromatic substituent (4a, 4b, 4c), in which case substrate is dissolved in 100 microlitres DMSO and added to 900 microlitres of buffer)]. The reaction is shown in FIG. 10, the results are shown in Table 4, wherein the E-value is defined as follows: E value=(ln(1−[product](1+ee)))/(ln(1−[product]*(1−ee)))

The subject of data set [5] is Pseudomonas putida IFO 12996. The conditions noted are these: hydrolysis using Pseudomonas putida IFO 12996, JP06261787; cited from earlier work.
Data set [6] deals with hydantoinase isolated in Example 2. Description: Specific activity of the hydantoinase isolated in Example 2 towards substrates, HPLC. The format is biochemical, Vigna angularis. Particulars: Enzyme from Example 2; 5 mM substrate, 50 mM Tris HCl pH 7.5, 30 min, 40° C. As to the method:
as §1

Data set [7] in a line: pH dependency of chemical hydrolysis of 6-PDHU in Tris buffer without enzyme. The format is physicochemical. The conditions noted are these: 24 hours, no enzyme. The method, then:
6-PDHU was incubated at 50° C. for 24 hours in Tris buffer at different pH values. Appreciable background hydrolysis of 6-PDHU occurred with a strong pH and buffer dependency. In Tris buffer at pH 7, a background hydrolysis of 0.5% was observed. At pH 9, the background hydrolysis amounted to ca. 20% (FIG. 7).

Take `NC(=O)NC(CC(=O)O)c1ccccc1` (racemic) [N-carbamoyl-β-phenylalanine, (±)—N-carbamoyl-β-phenylalanine]: in data set [1], the “cyclisation of N-carbamoyl-β-phenylalanine (reverse reaction)” value was “highly (S)-selective”.
For `O=C1CC(c2ccccc2)NC(=O)N1` (racemic) [Substrate 4a, (±)-6-phenyldihydrouracil], the specific activity in data set [2] stood at 6; in data set [6], 72. The “ee (enantiomeric excess)” value in data set [3] (Phosphate buffer pH 6.00, 5 mM) is listed as over 99.90%; in data set [3] (Phosphate buffer pH 7.00, 5 mM) it was over 99.90%; in data set [3] (Phosphate buffer pH 7.50, 5 mM) it was 96.62%; in data set [3] (Phosphate buffer pH 8.00, 5 mM), 92.73%; in data set [3] (Tris buffer pH 7.50, 5 mM) it was over 99.90%. For the same compound, the E value is reported as over 200 in data set [4] and over 100 in data set [1] (selective for the (S)-enantiomer, 5 mM substrate, Tris buffer pH 7.5). In addition, the “Relative rate of enzymatic hydrolysis” value in data set [4] is 7. In addition, the enantiomeric excess entry in data set [5] was “up to 51%”. Besides, the background hydrolysis in data set [7] (Tris buffer pH 7, 50° C.) is given as 0.5%; in data set [7] (Tris buffer pH 9, 50° C.), “ca. 20%”.
As for `O=C1NC(=O)C(c2ccccc2)N1` (stereo not shown) [5-Phenylhydantoin, 5-phenylhydantoin], the specific activity in data set [2] came to 261; in data set [6], 557.
For the compound `NC(=O)N[C@H](CC(=O)O)c1ccccc1` [(R)-NCBPA, (R)—N-carbamoyl-β-phenylalanine], the “cyclisation of N-carbamoyl-β-phenylalanine (reverse reaction)” value in data set [1] is “no appreciable cyclisation”.
`NC(=O)N[C@@H](CC(=O)O)c1ccccc1` [(S)-NCBPA, (S)-N-carbamoyl-β-pheynylalanine]: the “enantiomeric excess of (S)-NCBPA” value in data set [1] (during the whole observation period) is reported as “exceeded 96%”.
For the compound `O=C1CNC(=O)N1` [Hydantoin, hydantoin], the results for the specific activity in data set [2] and in data set [6] were 217 and 425, respectively.
Consider `O=C1CC(c2ccc(F)cc2)NC(=O)N1` (stereo not shown) [Substrate 4b, 6-(4-fluoro-phenyl)-dihydrouracil], for which, in data set [4], the E value is reported as over 100 and the “Relative rate of enzymatic hydrolysis” value stood at 15.
In the case of `O=C1CC(c2ccc(Cl)cc2)NC(=O)N1` (stereo not shown) [Substrate 4c, 6-(4-chloro-phenyl)-dihydrouracil], in data set [4], the E value is on record as over 100 and the “Relative rate of enzymatic hydrolysis” value is reported as 41.
With `O=C1CCNC(=O)N1` [Substrate 4e, dihydrouracil], the “Relative rate of enzymatic hydrolysis” value in data set [4] was 100.
Take `CC1CC(=O)NC(=O)N1` (stereo not shown) [Substrate 4h, 6-methyldihydrouracil]: in data set [4], the E value turned out to be 5 and the “Relative rate of enzymatic hydrolysis” value is reported as 52.
`CC1CNC(=O)NC1=O` (stereo not shown) [Substrate 8, 5-methyldihydrouracil]: the “Relative rate of enzymatic hydrolysis” value in data set [4] is 23.

The record behind these values is patent US9096841B2, “Preparation of beta-amino acids” (BASF SE, priority 2009, dated 2015).
